Where no end group is shown, it is not given here.
What was measured:
[1] = tested on: Foxp3^+CD4^+ Tregs; assay: Isolated Tregs co-cultured with SP, with or without NK1R antagonist (recovered Tregs); type: cell-based, mice; conditions: SP at 0.1, 1, and 10 nM in vitro; tested 0.01-10 nM
Experimental: FIGS. 3A and 3B show the results of the in vitro effect of SP on Treg cells. The normal functional Foxp3^+CD4^+ Tregs were isolated from naive mice and co-cultured with different doses of SP, e.g., at 0.01, 0.1, 1, and 10 nM in vitro. […] On the contrary, addition of the NK1R antagonist prevented the loss of Tregs (FIG. 3B).

[2] = tested on: bone marrow-derived dendritic cells (BMDCs); assay: BMDC maturation (MHC II expression) in the presence of SP, flow cytometry; type: cell-based, C57BL/6 mice; conditions: SP 25, 50 and 100 μg/mL for 18 hours; p=0.03 and p=0.02 for 50 and 100 μg/mL vs. vehicle
Experimental: Generation of Bone Marrow-Derived Dendritic Cells (BMDCs): Long bones (femur and tibia) were harvested from C57BL/6 mice and cell suspension was prepared. Cells were incubated with Red blood cell (RBC) lysis buffer (Sigma-Aldrich, St. Louis, Mo.) at 37° C. for 10 minutes. […]
Single Cell Suspension Preparation and Flow Cytometry: Submandibular and cervical draining lymph nodes (DLNs) were harvested and single cell suspensions were prepared. […] Stained cells were examined using an LSRII Flow Cytometer (BD Biosciences, Franklin Lakes, N.J., USA), and data were analyzed using commercial Summit software (Summit v4.3; Dako Colorado, Inc., Fort Collins, Colo.).
Mature APCs play a key role in the activation of THh17 cells and the autoimmune response in DED (Barabino S. et al. Prog Retin Eye Res 2012, 31:271-85; Stevenson W, Chauhan S K, Dana R: Dry eye disease: an immune-mediated ocular surface disorder. Arch Ophthalmol 2012, 130:90-100; Hamrah P, et al. Invest Ophthalmol Vis Sci 2003, 44:581-9). Given that increased SP levels in response to desiccating stress was observed, the effect of SP on maturation of APCs was next evaluated. […]

[3] = tested on: CD4^+CD25^+Foxp3^+ Tregs; assay: Tregs co-cultured with SP with or without Spantide I: phenotype, cytokines, suppression of effector T cell proliferation; type: cell-based, C57BL/6 mice
Experimental: CD4^+CD25^+Foxp3^+ Tregs were isolated from draining lymph nodes (DLN) of naïve female C57BL/6 mice.
Isolated Tregs were co-cultured with SP (1 μM) with or without Spantide I (10 μM) for 48 hours. Phenotype of Tregs was evaluated by flow cytometry, and the capacity of Tregs to suppress effector T cell proliferation was investigated.

[4] = tested on: corneal epithelial wound healing; conditions: topical application, diabetic mice; cited from earlier work

SP: substance P, an 11-amino acid neuropeptide, endogenous ligand of NK1R (RPKPQQFFGLM-NH2; ends and bridges not checked; UniProt P20366 58-68, looked up)
Tregs recovered after co-culture with SP [1]: significantly reduced Tregs | mean fluorescence intensity (MFI) of MHC II in BMDCs [2]: significant and dose-dependent increase | expression of inhibitory molecules Foxp3, CTLA4 and PD-1 by Tregs ([3]; SP 1 μM, 48 hours, in vitro): suppresses the expression | secretion of immunoregulatory cytokines (TGFβ and IL-10) by Tregs ([3]; SP 1 μM, 48 hours, in vitro): significantly lower levels | capacity of Tregs to suppress effector T cell proliferation in vitro ([3]; Tregs pre-incubated with SP): lower capacity | corneal epithelial wound healing [4]: promotes corneal epithelial wound healing
